Tests used:
SW620 cells (KRAS G12V) = assay: Cell-based pERK HTRF assay in SW620 cell (Biological Example 4); conditions: pERK HTRF
Summary of the method: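 Read-out: HTRF pERK signal (excitation 320 nm, emission 615 nm) from lysates of SW620 cells after 4 h compound exposure. Dose range was 9 points, half-log steps from 1 μM, in 0.25% DMSO; antibody incubation ran 4–24 h at room temperature.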

[1] = target: T1, Avi-KRAS G12D (1-169) GppNHp/RAF1 RBD-3xFLAG (52-151) (Homo sapiens, UniProt P01116, G12D); assay: Raf1-KRAS G12D-GppNHP disruption HTRF assay (Biological Example 1); assay type: binding
T1 construct: Avi-KRAS G12D (1-169)
Summary of the method: (§1)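 Percent activity versus DMSO (100%) was derived from HTRF signal after KRAS–RAF1 RBD protein mix was incubated 1 h at room temperature with shaking and detection reagents were added for a further 1 h.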

[2] = target: T2, Avi-KRAS WT (1-169) GppNHp/RAF1 RBD-3xFLAG (52-151) (Homo sapiens, UniProt P01116); assay: Raf1-KRAS WT-GppNHP disruption HTRF assay (Biological Example 1); assay type: binding
T2 construct: Avi-KRAS WT (1-169)
Summary of the method: as §1

GP2d cells (KRAS G12D) = assay: Cell-based pERK HTRF assay in GP2d cell (Biological Example 2); conditions: GP2d (KRAS G12D) cells, pERK HTRF
Summary of the method: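 Cells grown in DMEM with 10% FBS were exposed to compound for 60 min at 0.25% DMSO, using a 9-point half-log series starting at 1 μM or 100 nM. Lysates were then mixed with d2 and Eu cryptate antibodies for 4–24 h at room temperature, and pERK was read by HTRF.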

[3] = target: T3, Avi-KRAS G12V (1-169) GppNHp/RAF1 RBD-3xFLAG (52-151) (Homo sapiens, UniProt P01116, G12V); assay: Raf1-KRAS G12V-GppNHP disruption HTRF assay (Biological Example 1); assay type: binding
T3 construct: Avi-KRAS G12V (1-169)
Summary of the method: as §1

[4] = target: T4, Avi-KRAS G12R (1-169) GppNHp/RAF1 RBD-3xFLAG (52-151) (Homo sapiens, UniProt P01116, G12R); assay: Raf1-KRAS G12R-GppNHP disruption HTRF assay (Biological Example 1); assay type: binding
T4 construct: Avi-KRAS G12R (1-169)
Summary of the method: as §1

[5] = Homo sapiens, SW-620, SW620 (KRAS G12V) cells, class symbols
[6] = KRAS G12D, GppNHp-loaded, class symbols
[7] = KRAS WT, GppNHp-loaded, class symbols
[8] = KRAS G12V, GppNHp-loaded, class symbols
[9] = KRAS G12R, GppNHp-loaded, class symbols
[10] = Homo sapiens, SW-620, SW620 (KRAS G12V) cells
[11] = KRAS G12D, GppNHp-loaded, Table 11
[12] = KRAS WT, GppNHp-loaded, Table 11
[13] = KRAS G12V, GppNHp-loaded, Table 11
[14] = KRAS G12R, GppNHp-loaded, Table 11

T4 sequence (P01116 1-169 isoform P01116-2 G12R): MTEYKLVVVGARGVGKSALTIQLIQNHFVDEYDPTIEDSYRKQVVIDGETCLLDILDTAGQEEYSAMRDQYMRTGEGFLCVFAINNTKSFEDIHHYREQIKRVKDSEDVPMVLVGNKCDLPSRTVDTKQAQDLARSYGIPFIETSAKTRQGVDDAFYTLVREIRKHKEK
T1 sequence (P01116 1-169 isoform P01116-2 G12D): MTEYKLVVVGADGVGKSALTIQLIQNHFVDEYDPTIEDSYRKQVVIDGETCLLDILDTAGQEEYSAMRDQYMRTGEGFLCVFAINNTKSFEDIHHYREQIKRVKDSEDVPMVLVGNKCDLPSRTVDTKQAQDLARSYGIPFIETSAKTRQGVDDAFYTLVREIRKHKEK
T3 sequence (P01116 1-169 isoform P01116-2 G12V): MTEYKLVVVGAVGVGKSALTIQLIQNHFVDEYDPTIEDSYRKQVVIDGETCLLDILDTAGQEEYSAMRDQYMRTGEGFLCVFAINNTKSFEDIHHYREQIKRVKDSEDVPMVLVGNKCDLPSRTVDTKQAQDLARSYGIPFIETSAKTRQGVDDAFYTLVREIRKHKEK
T2 sequence (P01116 1-169 isoform P01116-2): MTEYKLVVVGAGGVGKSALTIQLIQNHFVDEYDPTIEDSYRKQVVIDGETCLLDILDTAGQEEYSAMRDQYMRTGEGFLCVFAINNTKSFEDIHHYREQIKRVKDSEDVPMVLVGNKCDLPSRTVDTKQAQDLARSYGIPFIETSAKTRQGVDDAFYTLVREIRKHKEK

SMILES	IC50 (SW620 cells (KRAS G12V); [5]) [µM]	IC50 [1, 6] [µM]	IC50 [2, 7] [µM]	IC50 (GP2d cells (KRAS G12D); GP2d, class symbols) [µM]	IC50 [3, 8] [µM]	IC50 [4, 9] [µM]	IC50 (SW620 cells (KRAS G12V); [10]) [µM]	IC50 ([1]; KRAS G12D-GppNHp/RAF1 RBD HTRF) [µM]	IC50 ([2]; KRAS WT-GppNHp/RAF1 RBD HTRF) [µM]	IC50 (GP2d cells (KRAS G12D); GP2d) [µM]	IC50 ([3]; KRAS G12V-GppNHp/RAF1 RBD HTRF) [µM]	IC50 ([4]; KRAS G12R-GppNHp/RAF1 RBD HTRF) [µM]	other results
CCN(c1nc(OC[C@@]23CCCN2C[C@H](F)C3)nc2c(F)c(-c3ccc(F)c4sc(N)c(C#N)c34)c(C(F)(F)F)cc12)[C@@H]1CC(=O)N(CC(F)F)C1 (atropisomer, axis not shown) [Compound 612]	< 0.1	< 0.1	< 0.1	< 0.1	< 0.1	< 0.1	–	–	–	–	–	–	–
COC(=O)N1CC[C@H](N(c2nc(OC[C@@]34CCCN3C[C@H](F)C4)nc3c(F)c(-c4ccc(F)c5sc(N)c(C#N)c45)c(C(F)(F)F)cc23)C2CC2)C1 (atropisomer, axis not shown) [Compound 767]	< 0.1	< 0.1	0.1 to 1	< 0.1	0.1 to 1	0.1 to 1	–	–	–	–	–	–	–
C[C@@H]1CN(c2nc(OC[C@@]34CCCN3C[C@H](F)C4)nc3c(F)c(-c4ccc(F)c5sc(N)c(C#N)c45)c(C(F)(F)F)cc23)Cc2cc(C(=O)N(C)C)nn21 [Compound 423]	–	–	–	–	–	–	< 0.1	0.1 to 1	0.1 to 1	< 0.1	0.1 to 1	0.1 to 1	–
CC(=O)N1C2CCC1CN(c1nc(OC[C@@]34CCCN3C[C@H](F)C4)nc3c(F)c(-c4ccc(F)c5sc(N)c(C#N)c45)c(C(F)(F)F)cc13)C2 [Compound 438]	–	–	–	–	–	–	< 0.1	0.1 to 1	0.1 to 1	< 0.1	1 to 10	0.1 to 1	–
CCN(c1nc(OC[C@@]23CCCN2C[C@H](F)C3)nc2c(F)c(-c3ccc(F)c4sc(N)c(C#N)c34)c(C(F)(F)F)cc12)[C@H]1CCN(C(=O)C2CCC2)C1 (atropisomer, axis not shown) [Compound 551]	–	–	–	–	–	–	< 0.1	< 0.1	< 0.1	< 0.1	< 0.1	< 0.1	–
CN(c1nc(OC[C@@]23CCCN2C[C@H](F)C3)nc2c(F)c(-c3ccc(F)c4sc(N)c(C#N)c34)c(C(F)(F)F)cc12)[C@@H]1CC(=O)N(Cc2ccccc2)C1 [Compound 452]	–	–	–	–	–	–	0.1 to 1	0.1 to 1	0.1 to 1	< 0.1	0.1 to 1	0.1 to 1	–
CCC(=O)N1C[C@@H](N(CC)c2nc(OC[C@@]34CCCN3C[C@H](F)C4)nc3c(F)c(-c4ccc(F)c5sc(N)c(C#N)c45)c(C(F)(F)F)cc23)C[C@H]1COC (atropisomer, axis not shown) [Compound 649]	< 0.1	0.1 to 1	0.1 to 1	< 0.1	0.1 to 1	0.1 to 1	–	–	–	–	–	–	–
CCN(c1nc(OC[C@@]23CCCN2C[C@H](F)C3)nc2c(F)c(-c3ccc(F)c4sc(N)c(C#N)c34)c(C(F)(F)F)cc12)[C@H]1CCN(C(C)=O)[C@@H]1C (atropisomer, axis not shown) [Compound 591]	< 0.1	< 0.1	< 0.1	< 0.1	< 0.1	< 0.1	–	–	–	–	–	–	–
CCN(c1nc(OC[C@@]23CCCN2C[C@H](F)C3)nc2c(F)c(-c3ccc(F)c4sc(N)c(C#N)c34)c(C(F)(F)F)cc12)[C@H]1CCN(C(=O)C2CCN(C(C)=O)CC2)C1 (atropisomer, axis not shown) [Compound 575]	< 0.1	< 0.1	< 0.1	< 0.1	< 0.1	< 0.1	–	–	–	–	–	–	–
N#Cc1c(N)sc2c(F)ccc(-c3c(C(F)(F)F)cc4c(N5CC6CC(C5)O6)nc(OC[C@@]56CCCN5C[C@@]5(CC5(F)F)C6)nc4c3F)c12 [Compound 366]	–	–	–	–	–	–	< 0.1	0.1 to 1	0.1 to 1	< 0.1	1 to 10	1 to 10	–
CN(c1nc(OC[C@@]23CCCN2C[C@H](F)C3)nc2c(F)c(-c3ccc(F)c4sc(N)c(C#N)c34)c(C(F)(F)F)cc12)[C@@H]1C[C@H]2COC(=O)N2C1 [Compound 476]	–	–	–	–	–	–	< 0.1	0.1 to 1	0.1 to 1	< 0.1	0.1 to 1	0.1 to 1	–
CC(=O)N1CCCN(c2nc(OC[C@@]34CCCN3C[C@H](F)C4)nc3c(F)c(-c4ccc(F)c5sc(N)c(C#N)c45)c(C(F)(F)F)cc23)CC1 [Compound 278]	–	–	–	–	–	–	< 0.1	–	–	< 0.1	–	–	IC50 [1, 11]: 0.1 to 1 µM; IC50 [2, 12]: 0.1 to 1 µM; IC50 [3, 13]: 0.1 to 1 µM; IC50 [4, 14]: 0.1 to 1 µM
C[C@@H]1COC[C@H](C)N1c1nc(OC[C@@]23CCCN2C[C@H](F)C3)nc2c(F)c(-c3ccc(F)c4sc(N)c(C#N)c34)c(C(F)(F)F)cc12 [Compound 201]	–	–	–	–	–	–	< 0.1	–	–	< 0.1	–	–	IC50 [1, 11]: 0.1 to 1 µM; IC50 [2, 12]: 0.1 to 1 µM; IC50 [3, 13]: 0.1 to 1 µM; IC50 [4, 14]: 0.1 to 1 µM
CCN(c1nc(OC[C@@]23CCCN2C[C@H](F)C3)nc2c(F)c(-c3ccc(F)c4sc(N)c(C#N)c34)c(C(F)(F)F)cc12)[C@H]1CCN(C(=O)CC#N)C1 (atropisomer, axis not shown) [Compound 546]	–	–	–	–	–	–	< 0.1	< 0.1	< 0.1	< 0.1	< 0.1	< 0.1	–
CC(=O)N(C)CCN(C)c1nc(OC[C@@]23CCCN2C[C@H](F)C3)nc2c(F)c(-c3ccc(F)c4sc(N)c(C#N)c34)c(C(F)(F)F)cc12 [Compound 255]	–	–	–	–	–	–	< 0.1	–	–	< 0.1	–	–	IC50 [1, 11]: 0.1 to 1 µM; IC50 [2, 12]: 0.1 to 1 µM; IC50 [3, 13]: 0.1 to 1 µM; IC50 [4, 14]: 0.1 to 1 µM
N#Cc1c(N)sc2c(F)ccc(-c3c(C(F)(F)F)cc4c(N5CCn6nc(C(=O)N7CCC(O)C7)cc6C5)nc(OCC56CCCN5CC(F)C6)nc4c3F)c12 (stereo not drawn) [Compound 513]	–	–	–	–	–	–	–	0.1 to 1	0.1 to 1	–	0.1 to 1	0.1 to 1	IC50 (SW620 cells (KRAS G12V); SW620 (KRAS G12V) cells): 0.1 to 1 µM; IC50 (GP2d cells (KRAS G12D)): < 0.1 µM
CCN(c1nc(OC[C@@]23CCCN2C[C@H](F)C3)nc2c(F)c(-c3ccc(F)c4sc(N)c(C#N)c34)c(C(F)(F)F)cc12)[C@H]1C[C@H](C)N(C(=O)N(C)C)C1 (atropisomer, axis not shown) [Compound 521]	–	–	–	–	–	–	< 0.1	< 0.1	0.1 to 1	< 0.1	< 0.1	< 0.1	–
CCOC1CN(C(=O)N2CC[C@H](N(CC)c3nc(OC[C@@]45CCCN4C[C@H](F)C5)nc4c(F)c(-c5ccc(F)c6sc(N)c(C#N)c56)c(C(F)(F)F)cc34)C2)C1 (atropisomer, axis not shown) [Compound 758]	< 0.1	< 0.1	< 0.1	< 0.1	< 0.1	< 0.1	–	–	–	–	–	–	–
CCN(c1nc(OC[C@@]23CCCN2C[C@H](F)C3)nc2c(F)c(-c3ccc(F)c4sc(N)c(C#N)c34)c(C(F)(F)F)cc12)[C@H]1CCN(C(=O)N2CC(C#N)C2)C1 (atropisomer, axis not shown) [Compound 778]	< 0.1	< 0.1	< 0.1	< 0.1	< 0.1	< 0.1	–	–	–	–	–	–	–
N#Cc1c(N)sc2c(F)ccc(-c3c(C(F)(F)F)cc4c(N5CC(F)(F)C5)nc(OC[C@@]56CCCN5C[C@H](F)C6)nc4c3F)c12 [Compound 205]	–	–	–	–	–	–	< 0.1	–	–	< 0.1	–	–	IC50 [1, 11]: 0.1 to 1 µM; IC50 [2, 12]: 0.1 to 1 µM; IC50 [3, 13]: 0.1 to 1 µM; IC50 [4, 14]: 0.1 to 1 µM
CCN(c1nc(OC[C@@]23CCCN2C[C@H](F)C3)nc2c(F)c(-c3ccc(F)c4sc(N)c(C#N)c34)c(C(F)(F)F)cc12)[C@H]1C[C@@H](COC)N(C(C)=O)C1 (atropisomer, axis not shown) [Compound 632]	< 0.1	0.1 to 1	0.1 to 1	< 0.1	0.1 to 1	0.1 to 1	–	–	–	–	–	–	–
C[C@@H]1C[C@H](O)CCN1c1nc(OC[C@@]23CCCN2C[C@H](F)C3)nc2c(F)c(-c3ccc(F)c4sc(N)c(C#N)c34)c(C(F)(F)F)cc12 [Compound 265]	–	–	–	–	–	–	< 0.1	–	–	< 0.1	–	–	IC50 [1, 11]: 0.1 to 1 µM; IC50 [2, 12]: 0.1 to 1 µM; IC50 [3, 13]: 0.1 to 1 µM; IC50 [4, 14]: 0.1 to 1 µM
